Test results: US9605047B2, “Compositions and methods for treating hypertension” (The Brigham and Women's Hospital, Inc., priority 2012, dated 2017)
Values belong to the compound of their own block, whether it stands above or below them.

Tests used:
HPAECs [1] = experiment: Aldosterone levels in HPAEC culture medium by enzyme immunoassay; type: cell-based, human; conditions: pioglitazone 50 μM, 24 h
HPAECs [2] = experiment: Amplex Red assay of hydrogen peroxide levels in HPAECs; type: cell-based, human; conditions: aldosterone-treated HPAECs coincubated with spironolactone (10 μM), 24 h; n=3
Procedure: Human pulmonary artery endothelial cells (HPAECs) (Lonza) (male donors) were grown to confluence using phenol-free EGM-2 medium supplemented with 5% fetal bovine serum at 37° C., 5% CO2. Cells were passaged twice-weekly using 0.5% trypsin/EDTA, and experiments were performed on cells from passages 4-10. Aldosterone (Steraloids) and ET-1 (1-100 nM) (Sigma-Aldrich) were dissolved in dimethylsufloxide (10 nmol/L) and deoxygenated water, respectively, which served as vehicle controls. Cells were treated with aldosterone (10^−−10^−7 mol/L) for 24 h and in selected experiments co-incubated with the mineralocorticoid receptor inhibitor spironolactone (10 μM/l) (Sigma-Aldrich).

[3] = test system: Sprague-Dawley rats with MCT-induced PAH; experiment: MCT model of PAH, prevention study (spironolactone started at time of MCT injection); type: in vivo, rat
Procedure: (§1) Animal model of PAH. Male Sprague-Dawley rats (age 12-14 weeks; Charles River Laboratories) were handled in accordance with US National Institutes of Health guidelines, and all procedures were approved by the local committee at Brigham and Women's Hospital, Harvard Medical School. All surgeries were performed under ketamine/xylazine anesthesia. For the monocrotaline (MCT) model of PAH, rats were fed standard chow and treated with a 0.5 ml intraperitoneal injection of MCT (50 mg/ml) (Sigma-Aldrich) or 0.9% saline as control. Rats were randomized to spironolactone (25 mg/kg/d) (Henry Schein) or vehicle added to the drinking water. For the prevention study, treatment with spironolactone began immediately following administration of MCT and continued for 23-25 days until hemodynamic and tissue analyses were performed. For the reversal study, a second experiment was performed in which rats were randomized to spironolactone or vehicle that was initiated 14 days following the administration of MCT and continued until hemodynamic and tissue analyses were performed 10 days later.
(§2) Aldosterone and ET-1 levels. […] In selected experiments, cells were pre-treated for 6 h with BQ-788 (1.5 μM) (Sigma-Aldrich) to inhibit the ETB receptor. Aldosterone levels were measured in the medium of cells grown in phenol-free EGM-2 medium supplemented with charcoal-stripped serum, by enzyme immunoassay according to the manufacturer's instructions (Cayman). Results were standardized to cell protein concentration. Levels of aldosterone and ET-1 from plasma and whole lung tissue were measured by enzyme immunoassay according to the manufacturer's instructions (Cayman).
NO. metabolites. Nitrite (NO2^−) and nitrate (NO3^−) were measured in cell culture medium containing 2% fetal bovine serum and L-arginine (1 mmol/l) (Sigma-Aldrich) by 1(H)-naphthotriazole fluorescence (Cayman) as previously reported.^1 To measure NO2^− levels in whole lung tissue, lung specimens were harvested from rats and snap frozen in liquid nitrogen. Samples were thawed, homogenized in PBS (pH 7.4), and centrifuged at 14,000×g at 4° C. for 20 min. The supernatant was ultrafiltered using a 30 kDa molecular weight filter (Millpore), and the eluant was used to measure NO2^− levels according to manufacturer's instructions (Cayman).
Lung tissue histology. Rat lung vessels were perfused with saline through the pulmonary artery and inflated with 10% phosphate-buffered formalin at a pressure of 20 cm H2O through the trachea as described previously.^2 After fixation for 24 h at 4° C., the lung tissue was processed and embedded in paraffin using a Hypercenter™ XP System and Embedding Center (Shandon, Pittsburg, Pa.). The paraffin-embedded lung tissue was cut into 5-μm sections. Hematoxylin and eosin staining was performed according to methods published previously.^3 The 3,3′-diaminobenzidine substrate method was used for smooth muscle α-actin immunohistochemical staining. The number of muscularized arteries with a diameter of 20-50 μm located distal to terminal bronchioles were counted in 20 consecutive fields (100×) per section,^2 and the cross-sectional area was assessed using Image J™ software (NIH).
(§3) Sections were stained with a Gomori's Trichrome Staining Kit according to the manufacturer's instruction (Fischer Scientific). Image J™ software (NIH) was used to measure the per cent perivascular collagen deposition of muscularized arterioles with a diameter of 20-50 μm by subtracting the area of the lesser curvature from the greater curvature and dividing by the lesser curvature×100. Collagen was also assessed in tissue sections using Picrosirius Red Stain Kit according to the manufacturer's instruction (Polysciences). Lung sections were visualized under polarized light using an Olympus BX51™ microscope and images were acquired by the Picture Taker™ software package.
Echocardiography. […]

[4] = test system: Sprague-Dawley rats with MCT-induced PAH; experiment: MCT model of PAH, reversal study (spironolactone started 14 days after MCT); type: in vivo, rat
Procedure: as §1, §3
(§4) Right heart catheterization. An incision was made in the anterior triangle of the right neck, and a dissection was performed to expose the right internal jugular vein. A 0.04×0.023 in.-sized polyvinylchloridine catheter with a curved end was flushed with heparinized saline and connected to a Grass pressure transducer and Grass model 79 polygraph. A 4.0-proline suture was used to achieve hemostasis at the distal end of the jugular vein prior to insertion of the catheter. The tube was advanced and RV systolic pressure was recorded, which was assumed to be equal to PASP in the setting of a normal pulmonic valve.^3 All right heart catheterizations were performed within 10 min of echocardiography and both procedures were completed within 30 min.
(§5) Left heart catheterization and hemodynamics. Following completion of the right heart catheterization, a deep neck dissection was performed to identify the right carotid artery. Without disrupting the carotid sinus or vagus nerve, a cross-clamp was applied to the proximal and distal aspects of the carotid artery. A high fidelity Millar catheter (Millar Instruments, Inc.) was inserted into the carotid artery, the distal clamp was released, and the catheter was advanced past the aortic arch to record central aortic blood pressure. The catheter was then advanced across the aortic valve and left ventricular end-diastolic pressure (LVEDP) were recorded. Cardiac index (CI) was derived from pressure-volume loop analysis as described previously.^5 The pulmonary vascular resistance index was calculated as [(mean pulmonary artery pressure-LVEDP)/CI)] and systemic vascular resistance index was calculated as [(mean arterial pressure-mean right atrial pressure)/CI].

[5] = test system: ETB-dependent NO. generation in HPAECs; experiment: NO. metabolites (NO2−, NO3−) in ET-1-stimulated HPAECs; type: cell-based, human
Procedure: Cell culture and treatments. Human pulmonary artery endothelial cells (HPAECs) (Lonza) (male donors) were grown to confluence using phenol-free EGM-2 medium supplemented with 5% fetal bovine serum at 37° C., 5% CO2. Cells were passaged twice-weekly using 0.5% trypsin/EDTA, and experiments were performed on cells from passages 4-10. Aldosterone (Steraloids) and ET-1 (1-100 nM) (Sigma-Aldrich) were dissolved in dimethylsufloxide (10 nmol/L) and deoxygenated water, respectively, which served as vehicle controls. Cells were treated with aldosterone (10^−−10^−7 mol/L) for 24 h and in selected experiments co-incubated with the mineralocorticoid receptor inhibitor spironolactone (10 μM/l) (Sigma-Aldrich).

[6] = target: T1, ETB cysteinyl thiols (region containing Cys405) (Homo sapiens, UniProt P24530); experiment: Western analysis to detect ETB disulfide bond formation in HPAECs; type: cell-based; conditions: aldosterone 10^−7 mol/L 24 h or H2O2 200 μmol/L 20 min
T1 construct: endogenous in cells; host or cells: HPAECs (Lonza)
T1 sequence (P24530 27-442): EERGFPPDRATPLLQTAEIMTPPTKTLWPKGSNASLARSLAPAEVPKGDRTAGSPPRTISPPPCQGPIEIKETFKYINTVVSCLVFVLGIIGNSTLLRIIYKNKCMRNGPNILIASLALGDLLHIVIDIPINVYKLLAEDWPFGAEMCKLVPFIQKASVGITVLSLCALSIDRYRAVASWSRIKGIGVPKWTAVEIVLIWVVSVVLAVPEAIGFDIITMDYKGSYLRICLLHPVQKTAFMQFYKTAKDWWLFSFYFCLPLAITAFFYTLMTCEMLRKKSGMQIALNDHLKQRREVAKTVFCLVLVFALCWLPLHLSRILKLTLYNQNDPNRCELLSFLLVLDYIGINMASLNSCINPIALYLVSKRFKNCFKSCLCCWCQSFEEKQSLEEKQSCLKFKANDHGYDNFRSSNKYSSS
Procedure: Western analysis to detect ETB disfulfide bond formation. Western analysis to detect ETB disulfide bond formation was performed as described previously.^7 Briefly, protein extracts from cells were lysed in alkylating buffer containing 0.1 M Tris-HCL, pH 6.8, 1% SDS, 100 mM iodoacetamide, and 100 mM N-ethylmaleimide, and sonicated on ice for 5 min followed by a 30-min incubation at 25° C. Alkylated proteins were then precipitated with acetone. Proteins were resuspended in 50 μl of 0.1 M Tris-HCl, pH 7.4, 1% SDS; and disulfides were reduced with 5 mM tris(2-carboxyethyl)phosphine hydrochloride (TCEP). Following a 20-min incubation at 25° C., TCEP was removed with a Micro Bio-Spin™ column 6 (Bio-Rad), and 1% SDS was added to the eluant. The cysteines previously participating in a disulfide bond, now reduced, were labeled with 1 mM polyethylene glycol-conjugated maleimide (molecular mass 10 kDa) (Fluka). After a 1-h incubation at 25° C., proteins were precipitated with acetone, resuspended in 50 μl of non-reducing SDS electrophoresis buffer, and boiled for 10 min. Protein samples were then size-fractionated electrophoretically using SDS-PAGE, and transferred to a polyvinylidene fluoride membrane. […]

Sprague-Dawley rats = experiment: Monocrotaline (MCT) induction of PAH versus vehicle control; type: in vivo, rat
Procedure: as §1, §2
Echocardiography. Transthoracic two-dimensional, M-mode, and Doppler imaging were performed in rats using a Vevo 2010 ultrasonographic system with a 15-MHz transducer. M-mode and Doppler tracings were acquired at a sweep speed of 200 mm/s following optimization of endocardial visualization and spectral display of Doppler profiles as described previously.^3 M-mode measurements of the right ventricular free-wall thickness were measured in the parasternal short-axis view just below the levels of the aortic valve, as described previously and in accordance to recommendations on M-mode measurement of the RV by the American Society of Echocardiography.^4 All studies were performed by a cardiologist and experienced sonographer who was blinded to the treatment group and was responsible for image analysis.
as §4

[7] = test system: rats with SU-5416/hypoxia-induced PAH; experiment: SU-5416/hypoxia-induced PAH, prevention study with eplerenone; type: in vivo, rat; conditions: 21 days
Procedure: as §3, §4, §5

[8] = spironolactone 25 mg/kg/d in MCT-PAH rats
[9] = spironolactone 25 mg/kg/d from day 14
[10] = rats with MCT-induced PAH vs vehicle
[11] = rats with MCT-induced PAH vs vehicle, 25 days

SMILES: CCc1ccc(CCOc2ccc(CC3SC(=O)NC3=O)cc2)nc1 (stereo not drawn) [pioglitazone]
increase in aldosterone levels compared to V (HPAECs [1]): 365%

LVEDP [4, 9]: without changes
MAP [4, 9]: without changes
cardiac index (CI) [4, 9]: without changes
indexed systemic vascular resistance (SVRi) [4, 9]: without changes
SMILES: CC(=O)S[C@@H]1CC2=CC(=O)CC[C@]2(C)[C@H]2CC[C@@]3(C)[C@@H](CC[C@@]34CCC(=O)O4)[C@H]12 [spironolactone]
abrogation of aldosterone-induced H2O2 accumulation (HPAECs [2]): 56%
body weight [3, 8]: without significantly decreasing plasma ET-1 levels or influencing
left ventricular end-diastolic pressure (LVEDP) [3, 8]: without significantly decreasing plasma ET-1 levels or influencing
mean arterial pressure (MAP) [3, 8]: without significantly decreasing plasma ET-1 levels or influencing
plasma ET-1 levels [3, 8]: without significantly decreasing
PASP ([3]; spironolactone 25 mg/kg/d in drinking water, 23-25 days, vs V-treated PAH 89.3±5.2, n=6): 69.5±5.4 mm Hg
decrease in perivascular collagen deposition (Gomori's trichrome) ([3]; spironolactone 25 mg/kg/d vs V-treated rats with PAH, n=4): 77%
RV weight ([3]; spironolactone 25 mg/kg/d, vs V-treated PAH 0.43±0.07, p=0.32, n=5): 0.35±0.04 RV weight/LV septum weight
RV free-wall thickness ([3]; spironolactone 25 mg/kg/d, vs V-treated PAH 1.07±0.05, n=6): 0.86±0.03 mm
PAAT ([3]; spironolactone 25 mg/kg/d, vs V-treated PAH 14.1±1.2, n=6): 22.3 ± 2.2 ms
cross-sectional luminal area of vessels ([3]; spironolactone 25 mg/kg/d, vs V-treated PAH 14.3±0.7, n=5): 35.4±1.9 % cross sectional area
number of α-actin-stained muscularized distal pulmonary arterioles ([3]; spironolactone 25 mg/kg/d, vs V-treated PAH 77.7±6.3, n=5): 59.7±0.4 muscularized pulmonary arterioles/20 high powered fields
nitrite (NO2^−) in lung tissue specimens ([3]; spironolactone 25 mg/kg/d, vs V-treated PAH 506±86, n=4): 759±55 μM/μg protein
heart rate [4, 9]: without changes
indexed pulmonary vascular resistance (PVRi) ([4]; spironolactone 25 mg/kg/d from day 14, vs V-treated PAH 35.9±3.2, n=4): 21.5±3.2 mm Hg*min*g/ml
PASP ([4]; spironolactone 25 mg/kg/d from day 14, vs V-treated PAH 60.3±5.2, n=6): 39.5±4.1 mm Hg
decrease in levels of perivascular collagen ([4]; spironolactone 25 mg/kg/d from day 14 for 10 days vs V-treated PAH, n=6): 71%
NO2^− levels in aldosterone-treated, ET-1-stimulated cells ([5]; coincubation with spironolactone 10 μM, HPAECs): restored
increase in NOx levels ([5]; spironolactone coincubation in aldosterone-treated cells stimulated with ET-1, n=3): 87%

SMILES: OO [H2O2, hydrogen peroxide]
ETB disulfide bond formation (bands at 70 kDa and 90 kDa) [6]: de novo formation of one or two disulfide bonds

SMILES: C[C@H]1C(=O)O[C@@H]2CCN3CC=C(COC(=O)[C@](C)(O)[C@]1(C)O)[C@H]23 [MCT, monocrotaline]
increase in plasma ET-1 levels (Sprague-Dawley rats; MCT rat model of PAH): 3 fold
right ventricular (RV) free-wall thickness (Sprague-Dawley rats; MCT-treated rats vs vehicle control 0.58±0.05, n=6): 1.1±0.05 mm
pulmonary artery systolic pressure (PASP) (Sprague-Dawley rats; MCT-treated rats vs vehicle control 28.3±2.7, right heart catheterization, n=6): 89.3±5.3 mm Hg
pulmonary artery (PA) flow acceleration time (PAAT) (Sprague-Dawley rats; MCT-treated rats vs vehicle control 35.4±2.6, echocardiography, n=6): 14.1 ± 1.2 ms
increase in aldosterone levels in lung tissue (Sprague-Dawley rats; [10]): 172%
increase in aldosterone levels in plasma (Sprague-Dawley rats; [10]): 406%
increase in ET-1 levels in lung homogenates (Sprague-Dawley rats; [11]): 174%
increase in ET-1 levels in plasma (Sprague-Dawley rats; [11]): 286%

CI ([7]; eplerenone in chow): without significantly influencing
LVEDP ([7]; eplerenone in chow): without significantly influencing
MAP ([7]; eplerenone in chow): without significantly influencing
SVRi ([7]; eplerenone in chow): without significantly influencing
SMILES: COC(=O)[C@@H]1CC2=CC(=O)CC[C@]2(C)[C@@]23O[C@@H]2C[C@@]2(C)[C@@H](CC[C@@]24CCC(=O)O4)[C@H]13 [eplerenone]
decrease in perivascular collagen ([7]; eplerenone 0.6 mg/1 gm standard chow, n=5): 67%
body weight ([7]; eplerenone in chow): without significantly influencing
heart rate ([7]; eplerenone in chow): without significantly influencing
PVRi ([7]; eplerenone in chow, vs SU-5416/hypoxia 64.6±21.4, p=0.18, n=3-4): 43.9±8.7 mm Hg*min*gm/ml
PASP ([7]; eplerenone in chow, vs SU-5416/hypoxia 80.5±4.9, p=0.048, n=5): 61.5±6.5 mm Hg
